Laboratory results published in patent US20220041606A1, “POSITIVE ALLOSTERIC MODULATORS OF THE MUSCARINIC ACETYLCHOLINE RECEPTOR M1” (Vanderbilt University, priority 2020, published 2022).

Experiments:
human mAChR M1 [1] = molecular target: T1, human mAChR M1 (Homo sapiens, UniProt P11229); experiment: mAChR M1 cell-based functional assay (calcium mobilization), PAM activity: increase in the EC20 acetylcholine response; conditions: CHO-K1 cells expressing hM1; potentiation of EC20 acetylcholine response
T1 construct: host or cells: CHO-K1 cells (ATCC), stably transfected using Lipofectamine2000
T1 sequence (P11229 1-460): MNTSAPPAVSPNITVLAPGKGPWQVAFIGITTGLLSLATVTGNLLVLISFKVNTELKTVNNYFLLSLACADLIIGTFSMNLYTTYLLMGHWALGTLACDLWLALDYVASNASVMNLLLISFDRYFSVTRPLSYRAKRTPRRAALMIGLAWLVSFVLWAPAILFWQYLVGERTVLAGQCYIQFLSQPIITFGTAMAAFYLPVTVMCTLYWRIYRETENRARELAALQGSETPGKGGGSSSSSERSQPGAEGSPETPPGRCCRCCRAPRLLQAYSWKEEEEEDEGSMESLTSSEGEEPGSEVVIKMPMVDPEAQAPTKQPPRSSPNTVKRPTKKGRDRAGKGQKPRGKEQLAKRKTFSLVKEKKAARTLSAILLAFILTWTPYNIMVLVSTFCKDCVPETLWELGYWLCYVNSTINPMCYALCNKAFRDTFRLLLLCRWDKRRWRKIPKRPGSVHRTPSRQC
Outline: (§1)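 Fluorescence ratio calcium read-out (Fluo-4 AM, FDSS 6000) in human M1-expressing CHO-K1 cells. Agonist activity taken as concentration-dependent rise after compound addition; potentiation as enhancement of a subsequent EC20 acetylcholine challenge. Curves from 11-point threefold dilutions fitted by four-parameter logistic; Emax expressed versus acetylcholine maximum.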

human mAChR M1 [2] = molecular target: T1, human mAChR M1; experiment: mAChR M1 cell-based functional assay (calcium mobilization), agonist activity upon compound addition; conditions: CHO-K1 cells expressing hM1; for EC50: compound alone, before acetylcholine addition; for Emax: relative to the maximum for acetylcholine
Outline: as §1

EC50 (human mAChR M1 [1])	Emax (human mAChR M1 [1])	EC50 (human mAChR M1 [2])	Emax (human mAChR M1 [2])	Structure (SMILES)
0.037 µM	74%	1.54 µM	63%	Cn1cc(-c2ccc(Cn3cc(C(=O)N[C@H]4CCCC[C@@H]4O)c4nccn4c3=O)c(F)c2)cn1 [Compound B6, 6-(2-fluoro-4-(1-methyl-1H-pyrazol-4-yl)benzyl)-N-((1S,2S)-2-hydroxycyclohexyl)-5-oxo-5,6-dihydroimidazo[1,2-c]pyrimidine-8-carboxamide]
0.95 µM	81%	> 10 µM	9%	Cn1cc2c(-c3cc(F)c(Cn4cc(C(=O)N[C@H]5CCCCC[C@@H]5O)c5occc5c4=O)c(F)c3)cccc2n1 [Compound D22, 5-(2,6-difluoro-4-(2-methyl-2H-indazol-4-yl)benzyl)-N-((1S,2S)-2-hydroxycycloheptyl)-4-oxo-4,5-dihydrofuro[3,2-c]pyridine-7-carboxamide]
3.09 µM	80%	> 10 µM	< 5%	Cn1ccc(-c2ccc(Cn3cc(C(=O)N[C@H]4CCCCC[C@@H]4O)c4occc4c3=O)c(F)c2)n1 [Compound D9, 5-(2-fluoro-4-(1-methyl-1H-pyrazol-3-yl)benzyl)-N-((1S,2S)-2-hydroxycycloheptyl)-4-oxo-4,5-dihydrofuro[3,2-c]pyridine-7-carboxamide]
0.89 µM	80%	> 10 µM	< 5%	Cn1nccc1-c1ccc(Cn2cc(C(=O)N[C@H]3CCCC[C@@H]3O)c3nccn3c2=O)c(F)c1 [Compound B32, 6-(2-fluoro-4-(1-methyl-1H-pyrazol-5-yl)benzyl)-N-((1S,2S)-2-hydroxycyclohexyl)-5-oxo-5,6-dihydroimidazo[1,2-c]pyrimidine-8-carboxamide]
0.9 µM	59%	> 10 µM	< 5%	Cn1cc2c(-c3cc(F)c(Cn4cc(C(=O)N[C@H]5CCC[C@@H]5O)c5nccn5c4=O)c(F)c3)cccc2n1 [Compound B21, 6-(2,6-difluoro-4-(2-methyl-2H-indazol-4-yl)benzyl)-N-((1S,2S)-2-hydroxycyclopentyl)-5-oxo-5,6-dihydroimidazo[1,2-c]pyrimidine-8-carboxamide]
> 10 µM	40%	> 10 µM	< 5%	Cn1ccc(-c2ccc(Cn3cc(C(=O)N[C@H]4CCCCC[C@@H]4O)c4sccc4c3=O)c(F)c2)n1 [Compound D28, 5-(2-fluoro-4-(1-methyl-1H-pyrazol-3-yl)benzyl)-N-((1S,2S)-2-hydroxycycloheptyl)-4-oxo-4,5-dihydrothieno[3,2-c]pyridine-7-carboxamide]

The next lines start with the molecule.

Structure (SMILES)	EC50 (human mAChR M1 [1])	Emax (human mAChR M1 [1])	EC50 (human mAChR M1 [2])	Emax (human mAChR M1 [2])
Cn1ccc(-c2ccc(Cn3cc(C(=O)N[C@H]4CCC[C@@H]4O)c4nccnc4c3=O)c(F)c2)n1 [Compound A64, 6-(2-fluoro-4-(1-methyl-1H-pyrazol-3-yl)benzyl)-N-((1S,2S)-2-hydroxycyclopentyl)-5-oxo-5,6-dihydropyrido[3,4-b]pyrazine-8-carboxamide]	≥ 10 µM	41%	> 10 µM	41%
Cc1cc(-c2ccc(Cn3cc(C(=O)N[C@H]4CCOC[C@@H]4O)c4ncccc4c3=O)c(F)c2)ccn1 [Compound A26, 6-(2-fluoro-4-(2-methylpyridin-4-yl)benzyl)-N-((3R,4S)-3-hydroxytetrahydro-2H-pyran-4-yl)-5-oxo-5,6-dihydro-1,6-naphthyridine-8-carboxamide]	0.49 µM	75%		10%
Cc1cc(C)cc(-c2cc(F)c(Cn3cc(C(=O)N[C@H]4CCOC[C@@H]4O)c4ncccc4c3=O)c(F)c2)c1 [Compound A32, 6-((3,5-difluoro-3′,5′-dimethyl-[1,1′-biphenyl]-4-yl)methyl)-N-((3R,4S)-3-hydroxytetrahydro-2H-pyran-4-yl)-5-oxo-5,6-dihydro-1,6-naphthyridine-8-carboxamide]	2.24 µM	70%	> 10 µM	< 5%
Cc1cncc(-c2cc(F)c(Cn3cc(C(=O)N[C@H]4CCOC[C@@H]4O)c4ncccc4c3=O)c(F)c2)c1 [Compound A33, 6-(2,6-difluoro-4-(5-methylpyridin-3-yl)benzyl)-N-((3R,4S)-3-hydroxytetrahydro-2H-pyran-4-yl)-5-oxo-5,6-dihydro-1,6-naphthyridine-8-carboxamide]	0.86 µM	64%	3.22 µM	13%
Cn1cc2c(-c3cc(F)c(Cn4cc(C(=O)N[C@H]5CCCCC[C@@H]5O)c5ncncc5c4=O)c(F)c3)cccc2n1 [Compound A85, 6-(2,6-difluoro-4-(2-methyl-2H-indazol-4-yl)benzyl)-N-((1S,2S)-2-hydroxycycloheptyl)-5-oxo-5,6-dihydropyrido[4,3-d]pyrimidine-8-carboxamide]	≥ 10 µM	41%	> 10 µM	< 5%
Cn1cc(-c2ccc(Cn3cc(C(=O)NC4CCOCC4)c4ncccc4c3=O)c(F)c2)cn1 [Compound A10, 6-(2-fluoro-4-(1-methyl-1H-pyrazol-4-yl)benzyl)-5-oxo-N-(tetrahydro-2H-pyran-4-yl)-5,6-dihydro-1,6-naphthyridine-8-carboxamide]	≥ 10 µM	59%	> 10 µM	< 5%
Cn1cc(-c2ccc(Cn3cc(C(=O)N[C@H]4CCCC[C@@H]4O)c4ncccc4c3=O)c(F)c2)cn1 [Compound A7, 6-(2-fluoro-4-(1-methyl-1H-pyrazol-4-yl)benzyl)-N-((1S,2S)-2-hydroxycyclohexyl)-5-oxo-5,6-dihydro-1,6-naphthyridine-8-carboxamide]	0.29 µM	89%		12%
Cc1cccc(-c2cc(F)c(Cn3cc(C(=O)N[C@H]4CCOC[C@@H]4O)c4ncccc4c3=O)c(F)c2)c1 [Compound A31, 6-((3,5-difluoro-3′-methyl-[1,1′-biphenyl]-4-yl)methyl)-N-((3R,4S)-3-hydroxytetrahydro-2H-pyran-4-yl)-5-oxo-5,6-dihydro-1,6-naphthyridine-8-carboxamide]	2.6 µM	70%	> 10 µM	< 5%
Cc1cc(-c2cc(F)c(Cn3cc(C(=O)N[C@H]4CCOC[C@@H]4O)c4ncccc4c3=O)c(F)c2)ccn1 [Compound A36, 6-(2,6-difluoro-4-(2-methylpyridin-4-yl)benzyl)-N-((3R,4S)-3-hydroxytetrahydro-2H-pyran-4-yl)-5-oxo-5,6-dihydro-1,6-naphthyridine-8-carboxamide]	0.61 µM	65%	1.77 µM	13%
Cn1nccc1-c1ccc(Cn2cc(C(=O)N[C@H]3CCOC[C@@H]3O)c3ncccc3c2=O)c(F)c1 [Compound A45, 6-(2-fluoro-4-(1-methyl-1H-pyrazol-5-yl)benzyl)-N-((3R,4S)-3-hydroxytetrahydro-2H-pyran-4-yl)-5-oxo-5,6-dihydro-1,6-naphthyridine-8-carboxamide]	4.37 µM	70%	> 10 µM	< 5%
Cn1cc(-c2ccc(Cn3cc(C(=O)N[C@H]4CCCC[C@@H]4O)c4nccnc4c3=O)c(F)c2)cn1 [Compound A54, 6-(2-fluoro-4-(1-methyl-1H-pyrazol-4-yl)benzyl)-N-((1S,2S)-2-hydroxycyclohexyl)-5-oxo-5,6-dihydropyrido[3,4-b]pyrazine-8-carboxamide]	2.37 µM	62%	> 10 µM	26%
Cn1cc(-c2ccc(Cn3cc(C(=O)N[C@H]4CCOC[C@@H]4O)c4ncccc4c3=O)cn2)cn1 [Compound A15, N-((3R,4S)-3-hydroxytetrahydro-2H-pyran-4-yl)-6-((6-(1-methyl-1H-pyrazol-4-yl)pyridin-3-yl)methyl)-5-oxo-5,6-dihydro-1,6-naphthyridine-8-carboxamide]	1.37 µM	68%		34%
O=C(N[C@H]1CCOC[C@@H]1O)c1cn(Cc2c(F)cc(-c3ccns3)cc2F)c(=O)c2cccnc12 [Compound A50, 6-(2,6-difluoro-4-(isothiazol-5-yl)benzyl)-N-((3R,4S)-3-hydroxytetrahydro-2H-pyran-4-yl)-5-oxo-5,6-dihydro-1,6-naphthyridine-8-carboxamide]	1.79 µM	69%	> 10 µM	< 5%
Cn1cc2c(-c3cc(F)c(Cn4cc(C(=O)N[C@H]5CCCC[C@@H]5O)c5ncncc5c4=O)c(F)c3)cccc2n1 [Compound A88, 6-(2,6-Difluoro-4-(2-methyl-2H-indazol-4-yl)benzyl)-N-((1S,2S)-2-hydroxycyclohexyl)-5-oxo-5,6-dihydropyrido[4,3-d]pyrimidine-8-carboxamide]	≥ 10 µM	40%	> 10 µM	< 5%
